Data on two molecules can be found in patent publication US10350257B2, “Pharmaceutical composition containing complex extract of Crataegi fructus and Citri pericarpium as an active ingredient for treating or preventing obesity or lipid-related metabolic diseases” (NEUMED, priority 2012, dated 2019).

For test [1] the following is noted: 1,500 mg HCA daily, 12-week clinical trial; cited from earlier work.
Test [2] deals with diet-induced obesity (DIO) white rat models. The experiment in a line: Body weight gain in high-fat diet obese animal models (8 weeks). Type of test: in vivo, Sprague-Dawley male white rats. The settings on record: oral twice a day for 8 weeks, extracts 100 mg/kg, HCA 390 mg/kg. The protocol: (§1) Animal experiments were performed on Sprague-Dawley ([…] BIO Korea) male white rats weighing 80 to 100 g. 3. Selection of Experimental Groups • Normal group (AIN-93G, Normal diet+fed with secondary distilled water); • Control group (60% Kcal high-fat diet+fed with secondary distilled water); • Positive control group (60% Kcal high-fat diet+administered with 390 mg/kg of […] Fructus extract-administered group (high-fat diet+administered with 100 mg/kg of […] Fructus extract of Comparative Example 1); • Citri Pericarpium extract-administered group (high-fat diet+administered with 100 mg/kg of the Citri Pericarpium extract of Comparative Example 2); and • Complex extract-administered group (high-fat diet+administered with 100 mg/kg of the complex extract of Example 1 or 2). The temperature was 22±2° C., the relative humidity was 50±10%, and the dark-light cycle (light on at 07:00 light off at 19:00) was controlled with fluorescent lighting. […] Moreover, all the experimental groups were sacrificed after 8 weeks to collect blood samples, serums were separated from the blood samples, and the blood triglyceride (mg/dL) and the total cholesterol (mg/dL) were analyzed using a biochemical analyzer ([…], USA).

Test [3] shares this test system. Description: Blood triglyceride and total cholesterol in serum of high-fat diet obese animal models after 8 weeks. Type of test: in vivo, Sprague-Dawley male white rats. The following applies: serum after 8 weeks; high-fat diet rats; extracts 100 mg/kg, HCA 390 mg/kg oral twice a day. The protocol: as §1
The conditions of test [4]: about 3 g daily, after 3 months, clinical trials; cited from earlier work.

Marks after values point to notes of the source that are not given here.

For the molecule `O=C(O)CC(O)(C(=O)O)C(O)C(=O)O` (stereo not shown) [HCA, hydroxycitrate], the “Weight loss effect compared to the placebo group” value in test [1] is recorded as “no weight loss effect”. The Body weight gain in test [2] (60% Kcal high-fat diet rats, mean±SD) is 333.2 ± 12.2 g. Further, the “Reduction in rate of body weight gain” value in test [2] (vs high-fat diet control group) is reported as 7.3* %. In test [3], this molecule registered a Total cholesterol of 59.8 ± 11.2 mg/dL and a Total triglyceride of 134.2 ± 21.3 mg/dL.
As to conjugated linoleic acid, in test [4], the “Average body weight lost” value is given as 2.5 kg and the Body fat reduced was 15 to 20%.
